Assay results from ChEMBL document CHEMBL4270672, “Synthesis and Biological Evaluation of Fused Tricyclic Heterocycle Piperazine (Piperidine) Derivatives As Potential Multireceptor Atypical Antipsychotics” (J Med Chem, 2018).
Calls of active or inactive are those of the source. The calls are words filed in the database; no cut-off is given here.

Tests used:
D(2) dopamine receptor [1] = target: T1, D(2) dopamine receptor (Homo sapiens, UniProt P14416)
Mus musculus [2] = species on record: Mus musculus; assay: animal or person; settings: Kunming, po
Description: Antipsychotic activity in po dosed Kunming mouse assessed as reduction in apomorphine-induced climbing pretreated for 30 mins followed by apomorphine injection measured at 10 to 30 mins post dose

D(3) dopamine receptor [3] = target: D(3) dopamine receptor (Homo sapiens, UniProt P35462)
[4] = Therapeutic index, ratio of ED50 for catalepsy in Kunming mouse to ED50 for apomorphine-induced climbing in Kunming mouse; assay type: toxicity, organism-based; settings: in vivo, read-out: Ratio ED50
[5] = target: Sodium-dependent dopamine transporter (Rattus norvegicus, UniProt P23977); assay: Displacement of [3H] WIN35,428 from rat striatum homogenate DAT after 8 hrs mins by liquid scintillation counting
[6] = Displacement of [3H] nisoxetine from NET in rat hippocampal membrane homogenates after 8 hrs by liquid scintillation counting; assay type: cell membranes
Histamine H1 receptor = Histamine H1 receptor (Cavia porcellus, UniProt P31389)
Description: Displacement of [3H]-mepyramine from histamine H1 receptor in guinea pig cerebellum homogenates incubated for 60 mins by liquid scintillation counting

Mus musculus [7] = settings: Kunming
Description: (§1) Antipsychotic activity in po dosed Kunming mouse assessed as reduction in MK-801-induced hyperactivity pretreated for 60 mins followed by MK-801 challenge measured for 90 mins

[8] = target: 5-hydroxytryptamine receptor 7 (Rattus norvegicus, UniProt P32305); assay: Displacement of [3H]-5-CT from 5-HT7 receptor in rat cerebral cortex homogenates after 30 mins by liquid scintillation counting
[9] = Therapeutic index, ratio of ED50 for catalepsy in Kunming mouse to ED50 for MK-801-induced hyperactivity in Kunming mouse; assay type: toxicity, organism-based; settings: in vivo, read-out: Ratio ED50
[10] = target: 5-hydroxytryptamine receptor 1A (Homo sapiens, UniProt P08908)
D(2) dopamine receptor [11] = target: D(2) dopamine receptor (Rattus norvegicus, UniProt P61169)
Rattus norvegicus [12] = assay: Cognitive enhancing effect in Sprague-Dawley rat assessed as effect on total exploration time for familiar objects in acquisition trial at 0.03 to 0.3 mg/kg, po administered 1 hr measured for 3 mins by novel object recognition test; assay type: functional, organism-based
Mus musculus [13] = species on record: Mus musculus; assay: animal or person; settings: Kunming, po; remark: listed apart in the source
Description: as §1

D(2) dopamine receptor [14] = target: T1, D(2) dopamine receptor; assay: Agonist activity at dopamine D2 receptor long isoform (unknown origin) expressed in HEK293 cells assessed as induction of calcium flux at 10 uM after 60 min by calcium 4-dye based FLIPR assay relative to control; assay type: functional, cell-based
[15] = target: 5-hydroxytryptamine receptor 2A (Homo sapiens, UniProt P28223); assay: Antagonist activity at serotonin 5-HT2A receptor (unknown origin) expressed in HEK293 cells assessed as inhibition of serotonin-induced calcium flux at 10 uM after 15 mins by calcium 4-dye based FLIPR assay relative to control; assay type: functional, cell-based
[16] = Displacement of [3H]-DTG from sigma2 receptor in guinea pig brain membranes after 120 mins by liquid scintillation counting; assay type: cell membranes, Cavia porcellus, Membrane
Rattus norvegicus [17] = assay: Cognitive enhancing effect in Sprague-Dawley rat assessed as increase in total exploration time for novel objects in retention trial at 0.1 to 0.3 mg/kg, po administered 1 hr prior to acquisition trial measured 24 hrs post acquisition trial for 5 mins by novel object recognition test; assay type: functional, organism-based
Rattus norvegicus [18] = assay: AUC (0 to infinity) in Sprague-Dawley rat at 1 mg/kg, iv by LC-MS/MS analysis; assay type: ADME, organism-based; set-up: dose 1 mg/kg, route intravenous, time infinity; settings: in vivo
[19] = target: Muscarinic acetylcholine receptor M1 (Homo sapiens, UniProt P11229); assay: Displacement of [3H]-QNB from M1 receptor (unknown origin) in cell membrane homogenates after 30 mins by liquid scintillation counting
[20] = Tmax in Sprague-Dawley rat at 10 mg/kg, po by LC-MS/MS analysis; assay type: ADME, organism-based; settings: in vivo
D(1A) dopamine receptor [21] = target: D(1A) dopamine receptor (Rattus norvegicus, UniProt P18901); assay: Displacement of [3H]-SCH23390 from dopamine D1 receptor in rat strriatum homogenates after 20 mins by liquid scintillation counting
[22] = target: 5-hydroxytryptamine receptor 2A (Rattus norvegicus, UniProt P14842); assay: Displacement of [3H]-ketanserine from serotonin 5-HT2A receptor in rat brain cortex homogenates incubated for 30 mins by liquid scintillation counting
Rattus norvegicus [23] = assay: Cognitive enhancing effect in Sprague-Dawley rat assessed as increase in total exploration time for novel objects in retention trial at 0.03 mg/kg, po administered 1 hr prior to acquisition trial measured 24 hrs post acquisition trial for 5 mins by novel object recognition test; assay type: functional, organism-based
Rattus norvegicus [24] = assay: Antipsychotic activity in po dosed Sprague-Dawley rat assessed as reduction in conditioned avoidance response measured at 90 mins post single dose; assay type: functional; settings: 1.5 h
[25] = AUC (0 to infinity) in Sprague-Dawley rat at 10 mg/kg, po by LC-MS/MS analysis; assay type: ADME, organism-based; set-up: dose 10 mg/kg, route oral, time infinity; settings: in vivo
D(1A) dopamine receptor [26] = target: T2, D(1A) dopamine receptor (Homo sapiens, UniProt P21728); assay: Antagonist activity at human dopamine D1 receptor expressed in HEK293T cells assessed as inhibition of dopamine-induced cAMP accumulation at 10 uM preincubated for 15 mins followed by dopamine induction and measured after 30 mins by HTRF assay; assay type: functional, cell-based
D(3) dopamine receptor [27] = target: D(3) dopamine receptor (Rattus norvegicus, UniProt P19020)
Mus musculus [28] = assay: Induction of serum prolactin levels in Kunming mouse at 0.6 to 5.4 mg/kg, po administered for 28 days measured at 180 mins post last dose by EIA; assay type: organism-based; settings: in vivo, 3 h
D(2) dopamine receptor [29] = target: T1, D(2) dopamine receptor; assay: Antagonist activity at dopamine D2 receptor long isoform (unknown origin) expressed in HEK293 cells assessed as inhibition of dopamine-induced calcium flux at 10 uM after 15 mins by calcium 4-dye based FLIPR assay relative to control; assay type: functional, cell-based
D(1A) dopamine receptor [30] = target: T2, D(1A) dopamine receptor; assay: Antagonist activity at human dopamine D1 receptor expressed in HEK293T cells assessed as inhibition of dopamine-induced cAMP accumulation preincubated for 15 mins followed by dopamine induction and measured after 30 mins by HTRF assay; assay type: functional, cell-based
[31] = target: Adrenergic receptor alpha-2 (Rattus norvegicus, UniProt P22086+P19328+P22909); assay: Displacement of [3H]-rauwolscine from adrenergic alpha2 receptor in rat cerebral cotex homogenates after 60 mins by liquid scintillation counting
Rattus norvegicus [32] = assay: Cognitive enhancing effect in Sprague-Dawley rat assessed as increase in novelty discrimination index in retention trial at 0.3 mg/kg, po administered 1 hr prior to acquisition trial measured 24 hrs post acquisition trial for 5 mins by novel object recognition test; assay type: functional, organism-based
[33] = Cmax in Sprague-Dawley rat at 10 mg/kg, po by LC-MS/MS analysis; assay type: ADME, organism-based; set-up: dose 10 mg/kg, route oral; settings: in vivo
[34] = target: Sodium-dependent serotonin transporter (Rattus norvegicus, UniProt P31652); assay: Displacement of [3H]-paroxetine from SERT in rat cerebral cotex homogenates after 10 mins by liquid scintillation counting
[35] = AUC (0 to t) in Sprague-Dawley rat at 10 mg/kg, po by LC-MS/MS analysis; assay type: ADME, organism-based; settings: in vivo
[36] = Half life in Sprague-Dawley rat at 10 mg/kg, po by LC-MS/MS analysis; assay type: ADME, organism-based; settings: in vivo

T1 sequence (P14416 whole entry): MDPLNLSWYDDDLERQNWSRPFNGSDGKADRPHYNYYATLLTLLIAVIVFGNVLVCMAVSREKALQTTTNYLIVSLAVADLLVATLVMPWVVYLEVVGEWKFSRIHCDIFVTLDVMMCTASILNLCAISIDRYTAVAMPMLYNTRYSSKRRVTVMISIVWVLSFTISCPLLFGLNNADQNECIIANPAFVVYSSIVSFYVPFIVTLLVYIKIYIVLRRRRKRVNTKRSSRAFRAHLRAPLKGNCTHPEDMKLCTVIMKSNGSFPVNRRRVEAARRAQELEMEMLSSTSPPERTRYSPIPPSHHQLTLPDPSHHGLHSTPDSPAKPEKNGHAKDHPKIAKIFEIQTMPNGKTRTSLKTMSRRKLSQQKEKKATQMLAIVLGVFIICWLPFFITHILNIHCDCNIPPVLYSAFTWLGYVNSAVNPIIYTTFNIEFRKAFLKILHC
T2 sequence (P21728 whole entry): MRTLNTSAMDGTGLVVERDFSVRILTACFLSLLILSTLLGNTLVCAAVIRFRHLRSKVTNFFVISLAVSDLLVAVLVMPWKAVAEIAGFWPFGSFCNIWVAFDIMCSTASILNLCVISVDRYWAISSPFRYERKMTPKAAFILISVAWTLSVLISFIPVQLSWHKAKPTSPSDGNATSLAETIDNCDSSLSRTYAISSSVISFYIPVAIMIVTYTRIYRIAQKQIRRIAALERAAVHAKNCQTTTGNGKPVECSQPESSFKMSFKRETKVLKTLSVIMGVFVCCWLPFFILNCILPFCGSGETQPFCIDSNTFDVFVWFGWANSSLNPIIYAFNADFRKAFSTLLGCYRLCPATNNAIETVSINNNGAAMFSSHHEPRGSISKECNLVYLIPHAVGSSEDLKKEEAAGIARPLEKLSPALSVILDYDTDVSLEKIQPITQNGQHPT
Chain of 5-hydroxytryptamine receptor 2A (Rattus norvegicus, UniProt P14842) (P14842 whole entry): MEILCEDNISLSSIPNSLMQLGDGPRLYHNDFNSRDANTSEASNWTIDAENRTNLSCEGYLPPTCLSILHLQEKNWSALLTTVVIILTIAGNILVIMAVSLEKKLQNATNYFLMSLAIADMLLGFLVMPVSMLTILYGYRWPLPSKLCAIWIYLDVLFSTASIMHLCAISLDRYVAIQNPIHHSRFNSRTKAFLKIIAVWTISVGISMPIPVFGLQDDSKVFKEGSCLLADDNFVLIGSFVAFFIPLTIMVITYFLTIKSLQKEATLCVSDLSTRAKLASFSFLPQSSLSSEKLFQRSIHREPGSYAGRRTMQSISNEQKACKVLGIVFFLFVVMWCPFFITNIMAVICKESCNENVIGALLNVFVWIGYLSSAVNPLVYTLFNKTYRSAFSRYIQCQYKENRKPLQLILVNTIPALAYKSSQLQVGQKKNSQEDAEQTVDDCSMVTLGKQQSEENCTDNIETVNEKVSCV
Chain of D(3) dopamine receptor (Homo sapiens, UniProt P35462) (P35462 whole entry): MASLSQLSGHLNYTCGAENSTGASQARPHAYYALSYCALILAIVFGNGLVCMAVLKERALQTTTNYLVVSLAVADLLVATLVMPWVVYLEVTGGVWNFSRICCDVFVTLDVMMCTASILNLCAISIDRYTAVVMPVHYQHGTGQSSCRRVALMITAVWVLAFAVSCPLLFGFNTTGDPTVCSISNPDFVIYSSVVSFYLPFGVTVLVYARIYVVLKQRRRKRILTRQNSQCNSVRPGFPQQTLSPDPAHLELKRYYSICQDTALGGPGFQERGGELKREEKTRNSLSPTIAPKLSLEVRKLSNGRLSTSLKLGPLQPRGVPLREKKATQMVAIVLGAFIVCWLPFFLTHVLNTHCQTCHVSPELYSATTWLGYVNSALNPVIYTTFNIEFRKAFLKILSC
Chain of 5-hydroxytryptamine receptor 7 (P32305 whole entry): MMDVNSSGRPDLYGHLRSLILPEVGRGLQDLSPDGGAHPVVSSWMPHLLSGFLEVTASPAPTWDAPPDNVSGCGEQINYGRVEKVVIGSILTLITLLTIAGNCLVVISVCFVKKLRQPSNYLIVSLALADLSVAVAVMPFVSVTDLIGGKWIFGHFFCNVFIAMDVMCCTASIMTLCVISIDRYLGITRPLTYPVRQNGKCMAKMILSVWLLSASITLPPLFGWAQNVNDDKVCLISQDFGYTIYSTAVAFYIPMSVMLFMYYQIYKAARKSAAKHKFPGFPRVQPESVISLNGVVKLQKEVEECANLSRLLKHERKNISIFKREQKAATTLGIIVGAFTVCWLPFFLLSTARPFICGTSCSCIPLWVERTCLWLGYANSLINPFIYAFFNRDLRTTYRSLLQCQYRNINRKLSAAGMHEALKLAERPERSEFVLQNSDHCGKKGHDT
Chain of D(2) dopamine receptor (Rattus norvegicus, UniProt P61169) (P61169 whole entry): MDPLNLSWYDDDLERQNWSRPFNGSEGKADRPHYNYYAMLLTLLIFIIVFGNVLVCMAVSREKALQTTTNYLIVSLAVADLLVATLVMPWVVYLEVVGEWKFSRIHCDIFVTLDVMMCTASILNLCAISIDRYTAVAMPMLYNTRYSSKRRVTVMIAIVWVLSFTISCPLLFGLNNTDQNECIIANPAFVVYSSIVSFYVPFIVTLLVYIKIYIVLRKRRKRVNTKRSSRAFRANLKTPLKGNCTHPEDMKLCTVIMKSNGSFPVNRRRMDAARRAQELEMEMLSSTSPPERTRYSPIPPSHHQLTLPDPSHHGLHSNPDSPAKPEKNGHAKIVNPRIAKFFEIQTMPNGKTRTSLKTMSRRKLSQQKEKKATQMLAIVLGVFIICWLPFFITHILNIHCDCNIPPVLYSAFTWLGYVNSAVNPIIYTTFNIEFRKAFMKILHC
Chain of D(3) dopamine receptor (Rattus norvegicus, UniProt P19020) (P19020 whole entry): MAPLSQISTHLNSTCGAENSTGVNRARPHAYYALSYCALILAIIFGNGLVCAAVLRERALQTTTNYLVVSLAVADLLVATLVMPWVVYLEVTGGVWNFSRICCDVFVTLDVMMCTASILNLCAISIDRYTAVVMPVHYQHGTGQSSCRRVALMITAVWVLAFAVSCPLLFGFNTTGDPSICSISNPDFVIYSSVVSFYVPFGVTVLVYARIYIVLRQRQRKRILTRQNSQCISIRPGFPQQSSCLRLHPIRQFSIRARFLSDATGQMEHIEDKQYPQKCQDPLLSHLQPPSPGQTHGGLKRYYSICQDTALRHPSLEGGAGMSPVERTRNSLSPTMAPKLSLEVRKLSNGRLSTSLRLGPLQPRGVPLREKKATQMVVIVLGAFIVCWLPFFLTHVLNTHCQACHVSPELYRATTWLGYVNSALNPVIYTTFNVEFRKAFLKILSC
Chain of D(1A) dopamine receptor (Rattus norvegicus, UniProt P18901) (P18901 whole entry): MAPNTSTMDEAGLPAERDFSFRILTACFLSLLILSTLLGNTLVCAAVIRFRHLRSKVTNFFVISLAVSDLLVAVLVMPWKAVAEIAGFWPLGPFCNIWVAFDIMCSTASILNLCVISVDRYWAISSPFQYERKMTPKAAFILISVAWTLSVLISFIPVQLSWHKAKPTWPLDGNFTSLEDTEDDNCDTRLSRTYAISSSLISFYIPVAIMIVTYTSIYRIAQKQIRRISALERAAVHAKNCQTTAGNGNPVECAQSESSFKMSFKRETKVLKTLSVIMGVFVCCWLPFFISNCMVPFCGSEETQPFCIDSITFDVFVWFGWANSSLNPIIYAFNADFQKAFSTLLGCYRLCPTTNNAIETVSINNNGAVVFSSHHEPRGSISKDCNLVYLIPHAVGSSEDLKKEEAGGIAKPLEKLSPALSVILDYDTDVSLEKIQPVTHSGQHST
Chain of 5-hydroxytryptamine receptor 2A (Homo sapiens, UniProt P28223) (P28223 whole entry): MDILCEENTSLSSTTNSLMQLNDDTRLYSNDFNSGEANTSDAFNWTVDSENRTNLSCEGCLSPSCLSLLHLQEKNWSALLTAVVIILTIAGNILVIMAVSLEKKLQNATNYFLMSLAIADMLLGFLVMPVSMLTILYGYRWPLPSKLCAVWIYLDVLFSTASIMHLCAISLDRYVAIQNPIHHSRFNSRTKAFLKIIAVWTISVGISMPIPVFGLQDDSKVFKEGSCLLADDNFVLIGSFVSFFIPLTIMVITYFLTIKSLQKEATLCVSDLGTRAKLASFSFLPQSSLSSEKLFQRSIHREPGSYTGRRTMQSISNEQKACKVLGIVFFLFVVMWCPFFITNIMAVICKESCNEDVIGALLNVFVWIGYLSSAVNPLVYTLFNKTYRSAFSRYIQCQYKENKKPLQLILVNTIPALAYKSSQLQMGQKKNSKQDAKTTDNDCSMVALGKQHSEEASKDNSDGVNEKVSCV
Chain of 5-hydroxytryptamine receptor 1A (P08908 whole entry): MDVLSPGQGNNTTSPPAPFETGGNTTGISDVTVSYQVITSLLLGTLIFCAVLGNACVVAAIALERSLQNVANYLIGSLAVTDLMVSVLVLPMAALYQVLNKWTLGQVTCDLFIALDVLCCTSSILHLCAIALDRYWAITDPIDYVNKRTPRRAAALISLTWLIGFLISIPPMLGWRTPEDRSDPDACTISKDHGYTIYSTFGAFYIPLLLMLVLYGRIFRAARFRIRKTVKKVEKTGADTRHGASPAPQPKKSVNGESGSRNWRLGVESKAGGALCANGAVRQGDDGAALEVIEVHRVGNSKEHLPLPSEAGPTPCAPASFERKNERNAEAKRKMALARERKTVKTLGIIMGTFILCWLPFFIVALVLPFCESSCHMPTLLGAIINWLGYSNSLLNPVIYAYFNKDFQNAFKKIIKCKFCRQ
Chain of Muscarinic acetylcholine receptor M1 (P11229 whole entry): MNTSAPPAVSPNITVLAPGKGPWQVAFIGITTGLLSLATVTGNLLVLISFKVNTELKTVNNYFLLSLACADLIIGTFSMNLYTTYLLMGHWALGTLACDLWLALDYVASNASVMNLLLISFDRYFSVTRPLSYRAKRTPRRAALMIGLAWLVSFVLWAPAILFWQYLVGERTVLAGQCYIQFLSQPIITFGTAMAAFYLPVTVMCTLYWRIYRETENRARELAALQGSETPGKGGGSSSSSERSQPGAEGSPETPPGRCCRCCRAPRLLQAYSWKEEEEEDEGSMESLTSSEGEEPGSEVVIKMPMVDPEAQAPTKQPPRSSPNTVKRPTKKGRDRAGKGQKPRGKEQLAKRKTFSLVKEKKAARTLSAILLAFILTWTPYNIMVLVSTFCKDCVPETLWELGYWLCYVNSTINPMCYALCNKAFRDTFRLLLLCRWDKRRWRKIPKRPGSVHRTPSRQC

Molecule `O=C(CCCCN1CCC(c2noc3cc(F)ccc23)CC1)c1cc2c3c(c1)CCN3C(=O)CC2` has an IC50 (D(2) dopamine receptor [1]) of 9.02 nM, an ED50 (Mus musculus [2]) of 0.61 mg/kg and an IC50 (D(3) dopamine receptor [3]) of 25.6 nM. The selectivity ratio [4] was 129, the Ki [5] was greater than 1000 nM and the Ki [6] was greater than 1000 nM. The Ki (Histamine H1 receptor) was 630 nM, the Activity (Mus musculus [7]) was “Dose-dependent effect” and the Ki [8] was 226 nM. For the same molecule, the selectivity ratio [9] was 302, the IC50 [10] was 588 nM and the Ki (D(2) dopamine receptor [11]) was 2.9 nM. The Activity (Rattus norvegicus [12]) was “inactive”, the ED50 (Mus musculus [13]) was 0.26 mg/kg and the Activity (D(2) dopamine receptor [14]) was 9.8%. For the same molecule, the inhibition [15] was 100%, the Ki [16] was greater than 1000 nM and the Activity (Rattus norvegicus [17]) was “Active”. It also gave an AUC (Rattus norvegicus [18]) of 3151.2 ng·h/mL, a Ki [19] greater than 1000 nM and a Tmax [20] of 1 h. The Ki (D(1A) dopamine receptor [21]) was 76.9 nM, the Ki [22] was 0.72 nM and the Activity (Rattus norvegicus [23]) was “inactive”. It also gave an ED50 (Rattus norvegicus [24]) of 1.46 mg/kg, an AUC(0-inf) [25] of 18500 ng·h/mL and an inhibition (D(1A) dopamine receptor [26]) greater than 90%. The Ki (D(3) dopamine receptor [27]) was 1.66 nM, the Activity (Mus musculus [28]) was “Non-Toxic” and the inhibition (D(2) dopamine receptor [29]) was 93.3%. The IC50 (D(1A) dopamine receptor [30]) was 366 nM, the Ki [31] was greater than 1000 nM and the Activity (Rattus norvegicus [32]) was “Active”. It also gave a Cmax [33] of 3730 ng/mL, a Ki [34] greater than 1000 nM and an AUC(0-t) [35] of 18500 ng·h/mL. For the same molecule, the half-life [36] was 2.02 h.
